Molecular target: T1, ChDDO (Vanrija humicola, UniProt Q75WF1)
T1 construct: gene DDO; native enzyme in crude extract of D-Asp-induced strain UJ1 cells; FAD added
Test: HRP-coupled phenol/4-aminoantipyrine H2O2 assay at […] nm, crude extract
Type: biochemical
Details: 20 mM D-Asp; 20 uM FAD; 50 mM potassium phosphate pH 8.0

T1 sequence (Q75WF1 whole entry): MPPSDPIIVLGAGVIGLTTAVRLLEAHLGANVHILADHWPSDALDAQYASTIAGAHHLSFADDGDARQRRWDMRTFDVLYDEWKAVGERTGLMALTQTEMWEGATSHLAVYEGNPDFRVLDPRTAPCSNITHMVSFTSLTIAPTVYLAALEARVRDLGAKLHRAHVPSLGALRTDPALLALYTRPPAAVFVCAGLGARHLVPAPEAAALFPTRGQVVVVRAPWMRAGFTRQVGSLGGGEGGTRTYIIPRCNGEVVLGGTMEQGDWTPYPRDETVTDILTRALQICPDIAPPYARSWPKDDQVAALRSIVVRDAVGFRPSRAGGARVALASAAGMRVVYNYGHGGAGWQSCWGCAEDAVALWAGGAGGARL

N[C@H](CC(=O)O)C(=O)O [D-Asp]
HRP-coupled phenol/4-aminoantipyrine H2O2 assay at 505 nm, crude extract: the enzyme activity in the crude extract of the ΔChpyc1 strain induced by D-Asp

Source: publication PMC8708985, “Regulation of D-Aspartate Oxidase Gene Expression by Pyruvate Metabolism in the Yeast Cryptococcus humicola” (Microorganisms, 2021)
